From PubChem BioAssay (NCI)
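Method: 48-hour compound exposure of cells in 96-well plates, five concentrations, linear interpolation of endpoints. The concentration for 50% growth inhibition is given as GI50. TGI: concentration producing complete growth inhibition.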

Experiments:
Test in all cases: DTP human tumour cell line panel, 48 h
NCI/ADR-RES ovarian = system: NCI/ADR-RES ovarian
HT29 colon = system: HT29 colon
786-0 renal = system: 786-0 renal
SK-MEL-5 melanoma = system: SK-MEL-5 melanoma
OVCAR-3 ovarian = system: OVCAR-3 ovarian
CAKI-1 renal = system: CAKI-1 renal
PC-3 prostate = system: PC-3 prostate
SNB-75 CNS = system: SNB-75 CNS
HL-60(TB) leukemia = system: HL-60(TB) leukemia
COLO 205 colon = system: COLO 205 colon

Compound	TGI (NCI/ADR-RES ovarian)	TGI (HT29 colon)	TGI (786-0 renal)	TGI (SK-MEL-5 melanoma)	TGI (OVCAR-3 ovarian)	TGI (CAKI-1 renal)	TGI (PC-3 prostate)	TGI (SNB-75 CNS)	TGI (HL-60(TB) leukemia)	TGI (COLO 205 colon)	GI50 (NCI/ADR-RES ovarian)	GI50 (HT29 colon)	GI50 (786-0 renal)	GI50 (SK-MEL-5 melanoma)	GI50 (OVCAR-3 ovarian)	GI50 (CAKI-1 renal)	GI50 (PC-3 prostate)	GI50 (SNB-75 CNS)	GI50 (HL-60(TB) leukemia)	GI50 (COLO 205 colon)
O=C(O)CCCCC1CCSS1 (configuration not stated)	> 100 µM	> 100 µM	> 100 µM	> 100 µM	> 100 µM	> 100 µM	> 100 µM	> 100 µM	> 100 µM	> 100 µM										
C[C@@H]1CCc2ncc(F)cc2[C@H]2CCCN2c2ccn3ncc(c3n2)C(=O)N1	> 100 µM	> 100 µM	> 100 µM	> 100 µM	> 100 µM	> 100 µM	> 100 µM	97 µM	> 100 µM	> 100 µM	> 100 µM	68.3 µM	63 µM	> 100 µM	88.6 µM	23 µM	> 100 µM	19.6 µM	> 100 µM	75.9 µM
C[As](C)SC1OCC(O)C(O)C1O (configuration not stated)	0.602 µM	> 100 µM	0.545 µM	0.382 µM	0.412 µM	0.273 µM	5.73 µM	2.36 µM	0.189 µM	3.37 µM	0.138 µM	0.26 µM	0.0708 µM	0.166 µM	0.081 µM	0.0514 µM	0.506 µM	0.805 µM	0.0278 µM	0.747 µM
COc1ccc(/C=C/C(=O)c2cc3c(N)c(C(=O)Nc4ccc(OC)cc4)sc3nc2C)cc1	1.49 µM	> 28.4 µM	> 50 µM	4.03 µM	1.96 µM	> 50 µM	> 50 µM	2.21 µM	2.22 µM	0.609 µM	0.185 µM	0.404 µM	0.353 µM	0.203 µM	0.0276 µM	0.593 µM	0.434 µM	0.344 µM	0.323 µM	0.158 µM
Nn1c(-c2ccc(Cl)cc2)nc2c(-c3ccc(Cl)cc3)nc3ccc(Cl)cc3c2c1=O	> 100 µM	> 100 µM	54.3 µM	> 100 µM	8.68 µM	22 µM	> 100 µM	19.5 µM	> 100 µM	> 100 µM	48.3 µM	> 100 µM	16.4 µM	56.6 µM	2.7 µM	3.97 µM	60.7 µM	4.79 µM	2.76 µM	19.5 µM
O=c1[nH]cnc2n[nH]nc12	> 100 µM	> 100 µM	> 100 µM	> 100 µM	63.8 µM	> 100 µM	> 100 µM	> 69.8 µM	> 56.4 µM	> 100 µM	0.472 µM						5.99 µM			
N#[N+]c1ccc(Nc2ccccc2)cc1	> 50 µg/mL	> 50 µg/mL	> 50 µg/mL	> 50 µg/mL	> 50 µg/mL	19.3 µg/mL	> 50 µg/mL	> 50 µg/mL	> 50 µg/mL	> 50 µg/mL	> 50 µg/mL	> 50 µg/mL	> 50 µg/mL	> 50 µg/mL	> 50 µg/mL	1.11 µg/mL	> 50 µg/mL	> 50 µg/mL	> 50 µg/mL	> 50 µg/mL
COc1ccccc1C(=O)N(Cc1ccccc1)c1ccc(Cl)c(C(=O)OC(C)C)c1	85.6 µM	> 74 µM	> 100 µM	26.1 µM	> 100 µM	71.1 µM	75.3 µM	> 77.5 µM	43.6 µM	50.9 µM										
CNC(=O)OCc1nc(SC)n(C)c1COC(=O)NC	535 µM	605 µM	413 µM	327 µM	444 µM	497 µM	484 µM	349 µM	262 µM	295 µM										
Cn1c(=O)c2c(nc(N/N=C/c3ccccc3C(=O)O)n2C)n(C)c1=O	> 100 µM	> 100 µM	> 100 µM	> 100 µM	> 100 µM	> 100 µM	> 100 µM	> 100 µM	> 100 µM	> 100 µM										
CC1(C)N=C(N)N=C(N)N1c1cccc(CCc2ccccc2)c1	> 100 µM	18.6 µM	> 100 µM	8.82 µM	24.9 µM	> 100 µM	> 59 µM	46.4 µM	28.7 µM	16.9 µM	> 100 µM	0.135 µM	0.799 µM	0.429 µM	0.44 µM	40.2 µM	0.11 µM	0.707 µM	1.89 µM	0.574 µM
CC(O)[C@H](NC(=O)N[C@@H](CC(N)=O)c1nc(N2CCNCC2)no1)C(=O)O (some centres not stated)	> 100 µM	> 100 µM	> 100 µM	> 100 µM	> 100 µM	> 100 µM	> 100 µM	> 100 µM	> 100 µM	> 100 µM	> 100 µM	> 100 µM	> 100 µM	> 100 µM	> 100 µM	> 100 µM	> 100 µM	> 100 µM	> 100 µM	> 100 µM
OCC(O)C(O)C(O)C(O)c1nnc2c(-c3ccccc3)nc3ccccc3n12 (configuration not stated)	> 100 µM	> 100 µM	> 100 µM	> 100 µM	> 100 µM	> 100 µM	> 100 µM	> 100 µM	> 100 µM	> 100 µM	69.2 µM	86.3 µM	> 100 µM	70.3 µM	> 100 µM	> 100 µM	43.2 µM	> 100 µM	> 100 µM	74 µM
